Experimental data published in patent US5492924A, “Phorbine derivatives and their use in the diagnosis and therapy of cancer” (Fox Chase Cancer Center, priority 1993, dated 1996).

Key:
[1] = test system: EMT-6 mouse tumor cells; experiment: Photosensitizing effectiveness with EMT-6 tumor cells in vitro (photoinactivation); type: cell-based; details: for Photoinactivation rate (1/D50): 670 nm (pheophorbide) or 750 nm (bacteriopheophorbide), one hour exposure
Experimental: EMT-6 mouse tumor cells were exposed in slowly-stirred suspension cultures to various concentrations of Ph6-OH, Ph4-OH and BPh4-OH for one hour prior to illumination with graded light doses of specific wavelength. The pheophorbide and bacteriopheophorbide compounds were illuminated with 670 and 750 nm light, respectively. Illuminated cell populations were plated into Petri dishes containing appropriate media for colony forming assays. The surviving fraction (SF) of cells after various PDT treatments was computed from the ratio, [plating efficiency (treated cells)]/[plating efficiency (control cells)]. For each photosensitizer dosage investigated,survival curves of log SF versus light dose were constructed and analyzed. The light dose required to kill 50%, 90% and 99% of tumor cell populations (D50, D10 and D01) were determined. The reciprocal of light dose required to kill 50% of a tumor cell population (1/D50) was used as a photoinactivation rate for each concentration and as a basis for comparison of photosensitizer efficacy. Inactivation rates for the various photosensitizing agents activated with 630 (Photofrin® ), 670 (Ph6-OH) and 750 (BPh4-OH) nm light are shown in the accompanying Figure. Rates of photoinactivation and relative effectiveness of the pheophorbide and bacteriopheophorbide compounds compared to Photofrin®are given in Table C. The inactivation rate for Photofrin® was extrapolated from data generated at much higher drug concentrations utilizing the same experimental protocol. The relative effectiveness of Ph4-OH and BPh4-OH are approximately 800X and approximately 1150X, respectively.
For each concentration of photosensitizer compound studied, there was a threshold dose of light below which little or no cell killing occurred. […] For example, for PH6-OH at 0.1, 0.3 and 0.5 μM, the threshold light dose was 0.75, 0.18 and 0.08J/cm^2, respectively.

[2] = test system: EMT-6 tumor cells; experiment: Plating efficiency (colony forming assay) of EMT-6 tumor cells from tumors treated in vivo by PDT; design: species or system C.B17/Icr scid mice; details: for Plating efficiency, excision at 24 hr / Plating efficiency, immediate excision: 300J of 670 nm light
Experimental: (§1) Photosensitizer efficacy was measured with two different tumor models. Solid EMT-6 tumors (~0.1 cm^3) growing on the backs of C.B17/Icr scid mice were exposed to 300J of 670 nm light one hour after the iv administration of Ph4-OH. Light was generated by a laser, transported to the tumor-bearing mouse via an optical fiber and focused onto the tumor surface through a diffusing lens. The light dose rate at the tumor surface was 200-400 mW/cm^2 and the field size encompassed the tumor cross section. […] EMT-6 tumor response was quantified by two different assays. At various times after PDT treatment, animals were sacrified, tumors were removed in toto from the animal and mechanically disrupted. Tumor cells were released by an enzyme digestion procedure. Released tumor cells were plated into Petri dishes for colony forming assays.
IN VITRO PLATING EFFICIENCIES OF EMT-6
TUMOR CELLS FROM TUMORS TREATED IN VIVO
BY PDT WITH 300J OF 670 NM LIGHT

[3] = test system: EMT-6 mouse tumor cells; experiment: Photosensitizer drug uptake into EMT-6 tumor cells; type: cell-based; details: for Initial binding rate: EMT-6
Experimental: (§2) EMT-6 mouse tumor and UNA mouse endothelial cells were exposed to various concentrations of the photosensitizer compounds of the invention in slowly-stirred suspension cultures. […] Cells were lysed and solubilized by mixing 1 mL of cell suspension with 1 mL 4% Triton X-100. After 2 hours of extraction, samples were mixed with 2 mL 95% EtOH and photosensitizer levels quantified by spectrofluorometry using Eex =400 nm and Eem =670 nm. […] For both cell lines, uptake is dependent upon photosensitizer concentration in the media and the larger volume tumor cells show the higher rates of uptake. If drug uptake rate is normalized to a standard cell volume, EMT-6 tumor cells bind the photosensitizer at 1.25 times that of UNA endothelial cells.

[4] = test system: UNA mouse endothelial cells; experiment: Photosensitizer drug uptake into UNA endothelial cells; type: cell-based
Experimental: as §2

[5] = test system: EMT-6 tumors; experiment: EMT-6 tumor regrowth assay after PDT; type: in vivo, C.B17/Icr scid mice; details: for Regrowth time (time to grow to two times the treatment volume): 300J of 670 nm one hr after administration
Experimental: as §1
Tumor response to PDT was also quantified by tumor regrowth assay. The volumes of both untreated and PDT-treated tumors in animals were estimated from caliper measurements made three times a week. Tumor response in vivo was characterized by acute inflammatory reaction observed on days 1 and 2 after treatment followed by tumor volume shrinkage and eventual cure or regrowth. These responses from individual tumors were quantified in days after treatment required for tumors to reach two times their treatment volume. […] Tumor response is a function of photosensitizer dosage. […] In this assay, some tumor cures are consistently observed when growth delay times are 15 days and greater.
TIME FOR EMT-6 TUMORS TO GROW TO TWO
TIMES THE TREATMENT VOLUME AFTER 300J
OF 670 NM DELIVERED ONE HR AFTER I.V.
PHOTOSENSITIZER ADMINISTRATION

[6] = test system: Dunning prostate carcinomas (R3327-AT); experiment: Tumor response and cure of Dunning prostate carcinomas after PDT; type: in vivo, Fischer X Copenhagen rats
Text: Tumor response and cure was also investigated with 4-5 cm^3 Dunning prostate carcinomas (R3327-AT) growing in Fischer X Copenhagen rats. These tumors were illuminated by laser light delivered by a laterally-diffusing optical fiber applicator which contained seven fibers in an hexagonal array of equilateral triangles with 0.9 cm spacing.

[7] = .3 μM, compared to Photofrin (= 1)

CCC1c2cc3[nH]c4c(c3C)C(=O)C(C(=O)OC)c4c3nc(cc4[nH]c(cc(n2)C1C)c(C(C)=O)c4C)C(C)C3CCC(=O)NCCCCO (stereo not shown) [BPh4-OH, 9-Acetyl-14-ethyl-13,14-dihydro-21-(methoxycarbonyl)-4,8,13,18-tetramethyl-20-oxo-N-(4-hydroxybutyl)-3-phorbinepropanamide]
Photoinactivation rate (1/D50) ([1]; .3 μM): 10.4 (J/cm^2)^-1 | Relative effectiveness [1, 7]: 1156 | Relative effectiveness ([1]; compared to Photofrin): approximately 1150 X

C=Cc1c(C)c2cc3nc(c4c5[nH]c(cc6nc(cc1[nH]2)C(C)=C6CC)c(C)c5C(=O)C4C(=O)OC)C(CCC(=O)NCCCCO)C3C (stereo not shown) [Ph4-OH, 9-Ethenyl-14-ethyl-21-(methoxycarbonyl)-4,8,13,18-tetramethyl-20-oxo-N-(4-hydroxybutyl)-3-phorbinepropanamide]
Plating efficiency, excision at 24 hr ([2]; 1 mg/kg iv): 0.001 ± 0.001 | Plating efficiency, immediate excision ([2]; 1 mg/kg iv): 0.55 ± 0.07 | Plating efficiency, excision at 24 hr ([2]; 2 mg/kg iv): ≤ 0.0001 | Plating efficiency, immediate excision ([2]; 2 mg/kg iv): 0.48 ± 0.09 | Tumor cell plating efficiency when tumors excised 24 hr after PDT ([2]; 24 hr after PDT, in words): decreased dramatically in proportion to photosensitizer concentration and light dose | Tumor cell killing when tumors excised immediately after PDT ([2]; immediately after PDT, in words): little or no killing observed | Potency relative to Photofrin for producing same extent of tumor cell kill in vivo ([2]; relative to Photofrin, photosensitizer and light doses): at least fifty times more potent | Initial binding rate ([3]; 0.5 μM): 0.097 μg/10^6 cells/hr | Initial binding rate ([3]; 1.0 μM): 0.068 μg/10^6 cells/hr | Uptake rate normalized to standard cell volume, EMT-6 tumor cells relative to UNA endothelial cells ([3]; ratio EMT-6/UNA): 1.25 times | Initial binding rate ([4]; 0.5 μM): 0.067 μg/10^6 cells/hr | Initial binding rate ([4]; 1.0 μM): 0.038 μg/10^6 cells/hr | Regrowth time (time to grow to two times the treatment volume) ([5]; 0.45 mg/kg i.v.): 4.3 ± 0.4 days | Regrowth time (time to grow to two times the treatment volume) ([5]; 0.75 mg/kg i.v.): 8.6 ± 0.5 days | Regrowth time (time to grow to two times the treatment volume) ([5]; 1.00 mg/kg i.v.): 12.4 ± 0.6 days | Regrowth time (time to grow to two times the treatment volume) ([5]; 1.50 mg/kg i.v.): > 22.0 days | Tumor response (compared with Ph6-OH) ([5]; 300J of 670 nm light, in words): superior tumor response | Potency relative to Photofrin for equal tumor growth delay ([5]; relative to Photofrin, photosensitizer dosage and light dose): at least fifty times more potent | Tumor necrosis and response ([6]; 2 mg/kg iv, 400J of 670 nm light one hour after administration, 4-5 cm^3 tumors): Complete tumor necrosis and response | Potency relative to Photofrin for inducing tumor necrosis and cure ([6]; relative to Photofrin): at least eighty times more potent | Photoinactivation rate (1/D50) ([1]; .3 μM): 7.30 (J/cm^2)^-1 | Relative effectiveness [1, 7]: 811 | Relative effectiveness ([1]; compared to Photofrin): approximately 800 X

C=Cc1c(C)c2cc3nc(c4c5[nH]c(cc6nc(cc1[nH]2)C(C)=C6CC)c(C)c5C(=O)C4C(=O)OC)C(CCC(=O)NCCCCCCO)C3C (stereo not shown) [Ph6-OH, 9-Ethenyl-14-ethyl-21-(methoxycarbonyl)-4,8,13,18-tetramethyl-20-oxo-N-(6-hydroxyhexyl)-3-phorbinepropanamide]
Regrowth time (time to grow to two times the treatment volume) ([5]; 0.60 mg/kg i.v.): 4.7 ± 0.7 days | Regrowth time (time to grow to two times the treatment volume) ([5]; 1.00 mg/kg i.v.): 7.9 ± 1.3 days | Regrowth time (time to grow to two times the treatment volume) ([5]; 3.00 mg/kg i.v.): 25.5 ± 2.9 days | Threshold light dose below which little or no cell killing occurred ([1]; 0.1 μM): 0.75 J/cm^2 | Threshold light dose below which little or no cell killing occurred ([1]; 0.3 μM): 0.18 J/cm^2 | Threshold light dose below which little or no cell killing occurred ([1]; 0.5 μM): 0.08 J/cm^2 | Photoinactivation rate (1/D50) ([1]; .3 μM): 5.10 (J/cm^2)^-1 | Relative effectiveness [1, 7]: 567
